In US8420676B2, “Oxazolidinone derivatives” (Dong-A Pharmaceuticals Co. Ltd., priority 2003, dated 2013):
In brackets after ≈: the same amount, converted by molar mass.

Columns and labels:
[1] = test system: vancomycin resistant Enterococci (VRE); assay: Assay for in vitro antibacterial activity, agar dilution (VRE); conditions: Enterococcus, read-out: Minimum Inhibitory Concentration (MIC50) VRE
[2] = test system: methicillin resistant Staphylococcus aureus (MRSA); assay: Assay for in vitro antibacterial activity, agar dilution (MRSA); conditions: read-out: Minimum Inhibitory Concentration (MIC50) MRSA

Row | MIC50 [1] [µg/mL] | MIC50 [2] [µg/mL] | SMILES
1 | 8 (≈ 20.1 µM) | 4 (≈ 10.1 µM) | CN(C)CC1CN(c2ccc(-c3ccc(-c4nnn(C)n4)nc3)c(F)c2)C(=O)O1 (stereo in doubt) [Compound 40, (R)-3-(4-(2-(2-methyltetrazol-5-yl)pyridin-5-yl)-3-fluorophenyl)-5-(N,N-dimethylaminomethyl)oxazolidin-2-one]
2 | 2 (≈ 5.37 µM) | 1 (≈ 2.69 µM) | Cn1nnc(-c2ccc(-c3ccc(N4C[C@H](CF)OC4=O)cc3F)cn2)n1 [Compound 18, (R)-3-(4-(2-(2-methyltetrazol-5-yl)pyridin-5-yl)-3-fluorophenyl)-5-fluoromethyl oxazolidin-2-one]
3 | 32 | 32 | Cl.NC[C@H]1CN(c2ccc(-c3ccc(-n4ccnc4)nc3)c(F)c2)C(=O)O1 [Compound 19, (S)-3-(4-(2-(imidazole-1-yl)pyridin-5-yl)-3-fluorophenyl)-5-aminomethyl oxazolidin-2-one hydrochloride]
4 | 1 (≈ 2.62 µM) | 1 (≈ 2.62 µM) | Cc1nc(-c2ccc(-c3ccc(N4C[C@H](CO)OC4=O)cc3F)cc2)oc1C [Compound 21, (R)-3-(4-(4-(4,5-dimethyloxazol-2-yl)phenyl)-3-fluorophenyl)-5-hydroxymethyl oxazolidin-2-one]
5 | 0.125 (≈ 0.315 µM) | 0.25 (≈ 0.631 µM) | CC(=O)NC[C@H]1CN(c2ccc(-c3ccc(-n4nccn4)nc3)c(F)c2)C(=O)O1 [Compound 25, (S)-3-(4-(2-([1,2,3]triazol-2-yl)pyridin-5-yl)-3-fluorophenyl)-2-oxo-5-oxazolidinylmethyl acetamide]
6 | 0.5 (≈ 1.17 µM) | 0.5 (≈ 1.17 µM) | CC(=O)NC[C@H]1CN(c2ccc(-c3ccc(C4=NC(CO)CO4)cc3)c(F)c2)C(=O)O1 (stereo partly drawn) [Compound 26, (S)-3-(4-(4-(4(S)-hydroxymethyl-4,5-dihydroxazole-2-yl)phenyl)-3-fluorophenyl)-2-oxo-5-oxazolidinylmethyl acetamide]
7 | 0.5 (≈ 1.13 µM) | 0.5 (≈ 1.13 µM) | CC(=O)NC[C@H]1CN(c2ccc(-c3ccc(-c4nc(CO)cs4)cc3)c(F)c2)C(=O)O1 [Compound 28, (S)-3-(4-(4-(4-hydroxymethylthiazol-2-yl)phenyl)-3-fluorophenyl)-2-oxo-5-oxazolidinylmethyl acetamide]
8 | 1 (≈ 2.81 µM) | 0.5 (≈ 1.41 µM) | O=C1O[C@@H](CO)CN1c1ccc(-c2ccc(-n3nccn3)nc2)c(F)c1 [Compound 29, (R)-3-(4-(2-([1,2,3]triazol-2-yl)pyridin-5-yl)-3-fluorophenyl)-5-hydroxymethyl oxazolidin-2-one]

More lines, now with the values behind:

Row | SMILES | MIC50 [1] [µg/mL] | MIC50 [2] [µg/mL]
9 | CC(=O)NC[C@H]1CN(c2ccc(-c3ccc(N4CC(COC(=O)CN)CC4=O)nc3)c(F)c2)C(=O)O1 (stereo partly drawn) [Compound 1, (S)-3-(4-(2-(2-oxo-4-glycyloxymethylpylolidin-1-yl)pyridin-5-yl)-3-fluorophenyl)-2-oxo-5-oxazolidinylmethyl acetamide trifluoroacetic acid] | 0.25 (≈ 0.501 µM) | 1 (≈ 2 µM)
10 | CC(=O)NC[C@H]1CN(c2ccc(-c3ccc(-n4cc(COC(=O)CN)nn4)nc3)c(F)c2)C(=O)O1 [Compound 2, (S)-3-(4-(2-(4-glycyloxymethyl-1,2,3-triazol-1-yl)pyridin-5-yl)-3-fluorophenyl)-2-oxo-5-oxazolidinylmethyl acetamide trifluoroacetic acid] | 0.125 (≈ 0.259 µM) | 0.5 (≈ 1.03 µM)
11 | CC(=O)NC[C@H]1CN(c2ccc(-c3ccc(-c4cc(COC(=O)CN)on4)nc3)c(F)c2)C(=O)O1 [Compound 3, (S)-3-(4-(2-(5-glycyloxymethylisoxazol-3-yl)pyridin-5-yl)-3-fluorophenyl)-2-oxo-5-oxazolidinylmethyl acetamide trifluoroacetic acid] | 0.25 (≈ 0.517 µM) | 0.25 (≈ 0.517 µM)
12 | Cn1nnc(-c2ccc(-c3ccc(N4C[C@H](Cn5cncn5)OC4=O)cc3F)cn2)n1 [Compound 4, (R)-3-(4-(2-(2-methyltetrazol-5-yl)pyridin-5-yl)-3-fluorophenyl)-5-([1,2,4]triazol-1-yl)methyl oxazolidin-2-one] | 2 (≈ 4.75 µM) | 2 (≈ 4.75 µM)
13 | CC(=O)NC[C@H]1CN(c2ccc(-c3ccc(N4CCC(OC(=O)CN)C4=O)nc3)c(F)c2)C(=O)O1 (stereo partly drawn) [Compound 5, (S)-3-(4-(2-(2-oxo-3-glycyloxypyrrolidine-1-yl)pyridin-5-yl)-3-fluorophenyl)-2-oxo-5-oxazolidinylmethyl acetamide trifluoroacetic acid] | 0.25 (≈ 0.515 µM) | 0.5 (≈ 1.03 µM)
14 | CC(=O)NC[C@H]1CN(c2ccc(-c3ccc(C4=NOC(COC(=O)CN)C4)nc3)c(F)c2)C(=O)O1 (stereo partly drawn) [Compound 7, (S)-3-(4-(2-(5-glycyloxymethyl-4,5-dihydroisoxazole-3-yl)pyridin-5-yl)-3-fluorophenyl)-2-oxo-5-oxazolidinylmethyl acetamide trifluoroacetic acid] | 0.5 (≈ 1.03 µM) | 0.5 (≈ 1.03 µM)
15 | Cn1nnc(-c2ccc(-c3ccc(N4C[C@H](Cn5nccn5)OC4=O)cc3F)cn2)n1 [Compound 8, (R)-3-(4-(2-(2-methyltetrazol-5-yl)pyridin-5-yl)-3-fluorophenyl)-5-([1,2,3]triazol-2-yl)methyl oxazolidin-2-one] | 16 (≈ 38 µM) | 16 (≈ 38 µM)
16 | Cn1nnc(-c2ccc(-c3ccc(N4C[C@H](Cn5ccnn5)OC4=O)cc3F)cn2)n1 [Compound 9, (R)-3-(4-(2-(2-methyltetrazol-5-yl)pyridin-5-yl)-3-fluorophenyl)-5-([1,2,3]triazol-1-yl)methyl oxazolidin-2-one] | 0.125 (≈ 0.297 µM) | 0.25 (≈ 0.593 µM)
17 | CC(=O)NC[C@H]1CN(c2ccc(-c3ccc(-c4nc(C)c(C)o4)cc3)c(F)c2)C(=O)O1 [Compound 11, (S)-3-(4-(4-(4,5-dimethyloxazol-2-yl)phenyl)-3-fluorophenyl)-2-oxo-5-oxazolidinylmethyl acetamide] | 0.25 (≈ 0.59 µM) | 0.5 (≈ 1.18 µM)
18 | Cc1nnc(-c2ccc(-c3ccc(N4C[C@H](Cn5ccnn5)OC4=O)cc3F)cn2)o1 [Compound 13, (R)-3-(4-(2-(2-methyl-[1,3,4]oxadiazol-5-yl)pyridin-5-yl)-3-fluorophenyl)-5-([1,2,3]triazol-1-yl)methyl oxazolidin-2-one] | 0.25 (≈ 0.593 µM) | 0.25 (≈ 0.593 µM)
19 | O=C1O[C@@H](Cn2ccnn2)CN1c1ccc(-c2ccc(-n3cncn3)nc2)c(F)c1 [Compound 14, (R)-3-(4-(2-([1,2,4]triazol-1-yl)pyridin-5-yl)-3-fluorophenyl)-5-([1,2,3]triazol-1-yl)methyl oxazolidin-2-one] | 0.25 (≈ 0.615 µM) | 0.25 (≈ 0.615 µM)
20 | CC(=O)NC[C@H]1CN(c2ccc(-c3ccc(-c4nc(C)c(C)o4)nc3)c(F)c2)C(=O)O1 [Compound 15] | 1 (≈ 2.36 µM) | 1 (≈ 2.36 µM)
21 | Cc1nc(-c2ccc(-c3ccc(N4C[C@H](COC(=O)CN)OC4=O)cc3F)cc2)oc1C [Compound 23, (R)-3-(4-(4-(4,5-dimethyloxazol-2-yl)phenyl)-3-fluorophenyl)-5-glycyloxymethyl oxazolidin-2-one trifluoroacetic acid] | 2 (≈ 4.55 µM) | 2 (≈ 4.55 µM)
22 | CC(=O)NC[C@H]1CN(c2ccc(-c3ccc(-c4nc(COC(=O)CN)cs4)cc3)c(F)c2)C(=O)O1 [Compound 30, (S)-3-(4-(4-(4-glycyloxymethylthiazol-2-yl)phenyl)-3-fluorophenyl)-2-oxo-5-oxazolidinylmethyl acetamide trifluoroacetic acid] | 0.5 (≈ 1 µM) | 0.5 (≈ 1 µM)
